Ends that are not written are not given here.
Legend:
collagen type I = collagen type I (Homo sapiens, UniProt P02452+P08123); assay: Peptide binding to collagen-coated wells; conditions: FIG. 5C
Procedure: (§1) The peptides CGKRK (SEQ ID NO:1) and KAREC (SEQ ID NO:2) were diluted two-fold in PBS at different concentrations and added to collagen- and heparin-coated wells preblocked with 5% bovine serum albumin. The plates were incubated at room temperature for 1 hour, washed 4 times with 200 μL PBS, and scanned at […] of 485 and 515 nm using a SpectraMax M5 fluorescence plate reader. The PBS background was subtracted from the data points, and the data were plotted with Prism.

[1] = Peptide binding to heparin-coated wells; conditions: FIG. 5B
Procedure: as §1

bladder urothelium = assay: Intravesical peptide binding to the mouse bladder with or without injury (in situ imaging, histology); format: in vivo, mice; conditions: for Binding in the bladder, in situ images: 15 minutes incubation; for Histological analysis of binding, entire bladder: 2× magnification
Procedure: Eight-to twelve-week-old female mice were anesthetized with isoflurane using a vaporizer machine at a flow rate of 1-3 L/min. The mice were placed on their backs and their urethra openings were pulled forward while squeezing the bladder to express urine. A lubricated 24 G Angiocath catheter with no needle was inserted via the urethra into the bladder cavity to wash the bladder once with […] PBS. To imitate a bladder injury subsequent to bladder cancer surgery, in which the urothelium is damaged after the removal of cancer tissues, the catheter tip was inserted completely and five circular motions were made in the apical part of the bladder. A 1 mL syringe with 100 μL of a CGKRK peptide (SEQ ID NO:1) solution (0.3 mg/mL in 80% PBS/20% DMSO) was attached to the catheter, and approximately 50 μL of the solution was injected into the bladder until the bladder was completely distended, as determined by abdominal palpitation. The catheter with attached syringe was left in the bladder for 15 minutes. After incubation, the peptide was removed via negative pressure, and the bladder was washed 5 times with PBS, with complete filling of the bladder each time. A Dino-Lite AM4113T-GRFBY camera equipped with 480- and 570-nm excitation filters and 510- and 610-nm long pass emission filters was used to take images of the bladder in situ. The abdominal cavity was opened by incision, and the bladder was imaged at 20 to 40 times magnification. The images were acquired at 1280×1024 resolution.
Freshly removed bladders were washed in PBS and snap frozen in liquid nitrogen. The tissue was embedded in optical cutting temperature (OCT) media and cryosectioned in consecutive 7-μm steps so that alternating sections were mounted on slides for fluorescence imaging and hematoxylin-eosin (H&E) staining, respectively. The tissues on each slide were fixed in a 10% buffered formalin solution, mounted with Vectashield™ antifade mounting medium with DAPI (for fluorescence imaging) or Permount™ medium (for H&E staining), and covered with a coverslip. The bladders imaged with a Nikon E600 upright fluorescence microscope with a SPOT RT color camera. The images in each fluorescence channel were acquired under saturation as 12-bit gray TIFF files, and H&E images were acquired as RGB images. Each low-magnification image covering the entire bladder area was analyzed with ImageJ software. The background was subtracted, and the integrated gray density per image was calculated. The intensities were plotted as individual values using Prism software.
Referring now to FIGS. 6A and 6B, the effect of mechanical injury on accumulation of peptides in the bladder is illustrated. Mice were treated by washing the bladder and inducing injury to the mucosal surface of the bladder; the peptide was then injected into the bladder and incubated 15 minutes; the bladder was then washed 5 times. […] The arrows in FIGS. 6A and 6B indicate the apical region of the bladder.
An investigation of the mechanisms of injury-induced accumulation of CGKRK (SEQ ID NO:1) was conducted. CGKRK (SEQ ID NO:1) was mixed with EDTA-treated blood and administered intravesically. […] Mice were pretreated with the anti-inflammatory agent dexamethasone prior to injury.

[2] = system: MB49 bladder carcinoma cell line; assay: Peptide uptake by MB49 bladder carcinoma cells; format: cell-based, murine
Procedure: An MB49 bladder carcinoma cell line was maintained in full Dulbecco's modified Eagle's medium (DMEM) with antibiotics and L-glutamine. Cells were seeded on 24 well plates for at least 24 hours to allow the cells to grow to confluence; each sample was done in triplicate. Samples were then incubated with one of free CGKRK (SEQ ID NO:1) and KAREC (SEQ ID NO:2), micelles of these two peptides, fluorescence TAT peptide (positive control), and PBS (negative control). After the incubation, all wells were washed with PBS three times to remove any free fluorescence molecules. Cells were detached from the wells with trypsin at 37° C. for 5 minutes. 0.3% Triton X-100 in PBS was added to the cells, and after 30 minutes of incubation, the solutions were centrifugated in an Eppendorf microcentrifuge at 15,000 rpm. The fluorescence intensity of the supernatant was measured using a fluorescence plate reader. For confocal imaging, cells were grown on glass chamber slides. Following the incubation experiment, cells were imaged with a Nikon MR Confocal STORM super-resolution microscope.

Chain of collagen type I (P02452 162-1218 limits assumed): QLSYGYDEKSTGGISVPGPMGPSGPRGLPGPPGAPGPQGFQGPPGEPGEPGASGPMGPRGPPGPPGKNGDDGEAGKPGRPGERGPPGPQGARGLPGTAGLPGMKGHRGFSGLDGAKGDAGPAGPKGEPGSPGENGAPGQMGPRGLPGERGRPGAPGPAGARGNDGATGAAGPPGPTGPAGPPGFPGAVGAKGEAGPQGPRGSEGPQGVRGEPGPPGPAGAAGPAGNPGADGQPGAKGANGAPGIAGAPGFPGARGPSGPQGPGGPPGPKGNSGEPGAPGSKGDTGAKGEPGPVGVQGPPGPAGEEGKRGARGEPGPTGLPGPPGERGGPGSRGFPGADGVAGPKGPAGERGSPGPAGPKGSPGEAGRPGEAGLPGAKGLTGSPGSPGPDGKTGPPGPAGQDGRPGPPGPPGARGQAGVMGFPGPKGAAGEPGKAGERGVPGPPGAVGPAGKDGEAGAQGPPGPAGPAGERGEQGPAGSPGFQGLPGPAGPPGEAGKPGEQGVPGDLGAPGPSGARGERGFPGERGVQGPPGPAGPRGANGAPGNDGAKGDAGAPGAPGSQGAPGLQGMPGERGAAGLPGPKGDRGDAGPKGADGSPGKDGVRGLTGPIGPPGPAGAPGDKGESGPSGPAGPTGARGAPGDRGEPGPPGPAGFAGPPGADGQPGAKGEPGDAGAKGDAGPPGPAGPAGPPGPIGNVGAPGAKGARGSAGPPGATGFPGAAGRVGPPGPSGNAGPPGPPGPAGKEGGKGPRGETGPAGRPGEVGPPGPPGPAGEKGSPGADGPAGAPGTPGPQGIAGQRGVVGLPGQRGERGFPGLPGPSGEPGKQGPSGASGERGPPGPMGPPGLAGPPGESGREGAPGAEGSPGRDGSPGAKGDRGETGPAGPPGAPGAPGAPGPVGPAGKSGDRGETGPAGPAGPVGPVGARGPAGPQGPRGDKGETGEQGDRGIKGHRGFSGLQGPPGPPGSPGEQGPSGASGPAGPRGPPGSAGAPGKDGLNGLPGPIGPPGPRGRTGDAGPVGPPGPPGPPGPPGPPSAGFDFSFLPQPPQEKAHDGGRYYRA
Chain of collagen type I (P08123 80-1119 limits assumed): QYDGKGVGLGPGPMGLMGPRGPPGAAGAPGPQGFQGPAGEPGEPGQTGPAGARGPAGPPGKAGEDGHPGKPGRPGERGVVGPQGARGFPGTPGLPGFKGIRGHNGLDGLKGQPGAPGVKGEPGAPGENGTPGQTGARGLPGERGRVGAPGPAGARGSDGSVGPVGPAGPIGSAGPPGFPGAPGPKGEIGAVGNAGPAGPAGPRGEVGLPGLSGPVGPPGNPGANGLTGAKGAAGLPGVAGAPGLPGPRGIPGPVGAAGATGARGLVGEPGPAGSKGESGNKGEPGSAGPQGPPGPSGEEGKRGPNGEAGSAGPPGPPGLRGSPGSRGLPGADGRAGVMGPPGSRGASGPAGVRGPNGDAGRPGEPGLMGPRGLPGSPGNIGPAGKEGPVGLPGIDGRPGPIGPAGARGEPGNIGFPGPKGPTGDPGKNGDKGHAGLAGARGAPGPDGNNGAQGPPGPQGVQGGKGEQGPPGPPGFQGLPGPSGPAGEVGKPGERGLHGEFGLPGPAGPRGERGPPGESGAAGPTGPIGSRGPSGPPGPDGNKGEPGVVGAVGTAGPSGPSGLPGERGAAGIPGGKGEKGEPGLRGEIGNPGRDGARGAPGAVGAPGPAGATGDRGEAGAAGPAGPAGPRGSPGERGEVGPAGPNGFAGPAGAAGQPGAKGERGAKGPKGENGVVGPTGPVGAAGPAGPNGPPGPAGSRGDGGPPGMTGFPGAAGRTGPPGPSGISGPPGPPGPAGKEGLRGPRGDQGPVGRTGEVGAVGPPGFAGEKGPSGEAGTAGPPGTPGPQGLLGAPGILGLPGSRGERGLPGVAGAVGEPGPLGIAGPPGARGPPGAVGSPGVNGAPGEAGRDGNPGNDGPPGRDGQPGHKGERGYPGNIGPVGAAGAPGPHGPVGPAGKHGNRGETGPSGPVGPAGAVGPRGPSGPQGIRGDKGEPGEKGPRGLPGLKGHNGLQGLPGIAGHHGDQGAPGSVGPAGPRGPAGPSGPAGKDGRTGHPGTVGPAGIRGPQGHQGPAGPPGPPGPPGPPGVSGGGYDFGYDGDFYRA

Row | Substance | Kinetics of binding to collagen (curve fit) (collagen type I) | Kinetics of binding to heparin (curve fit) [1] | Binding in the bladder, in situ images (bladder urothelium; after mechanical injury) | Histological analysis of binding, entire bladder (bladder urothelium; injured bladder, FIG. 7) | Binding to collagen type I (collagen type I; versus KAREC) | Binding to heparin ([1]; versus KAREC) | Cellular uptake, accumulation in the cytoplasm (confocal images) [2] | Peptide uptake quantified by fluorescence spectroscopy ([2]; FIG. 5A, versus KAREC) | Accumulation after chemical disruption of the urothelium barrier with ethanol (bladder urothelium; 2× and 20× magnification) | Binding in the bladder, in situ images (bladder urothelium; absence of focal injury) | Histological analysis of binding, tissue layers (bladder urothelium; injured bladder, 20× magnification, FIG. 7) | Injury-induced binding after dexamethasone pretreatment (bladder urothelium; mice pretreated with dexamethasone prior to injury) | Binding when mixed with EDTA-treated blood (bladder urothelium; no injury, intravesical)
1 | KAREC [comparison peptide tested beside CGKRK, reference compound] | linear kinetics for other binding | linear kinetics for other binding | limited binding at the injury site | less efficient and less widespread accumulation | – | – | – | – | – | – | – | – | –
2 | CGKRK (also: fluorescent label) [cell-penetrating pentapeptide, fluorescently labelled in the tests] | saturation kinetics | linear kinetics for other binding | efficient binding after injury | widespread binding | more efficient binding to both heparin and collagen type I | more efficient binding to both heparin and collagen type I | significant accumulation | significantly more accumulation | widespread accumulation | no binding | accumulation of the peptide in the urothelium (U) and some penetration into the muscle layer (ML) | did not block injury-induced binding | Blood did not induce binding in the absence of injury

Source: patent US11642319B2, “Targeted nanogels for urinary bladder therapies” (THE REGENTS OF THE UNIVERSITY OF COLORADO, priority 2017, dated 2023)
